Tested on: C. difficile
Test: CDAD treatment in hamsters infected with C. difficile
Assay type: in vivo
Settings: for survival of hamsters infected with C. difficile: treated at the time of infection
Experimental: Optimal dosages and formulations of Rifalazil alone, or in combination with a second drug compound, can be determined using standard animal models known in the art. One example of an animal model for C. difficile associated disease is the Golden Syrian hamster. To determine the optimal dosage regimen of Rifalazil, Golden Syrian hamsters are injected subcutaneously with clindamycin phosphate (10 mg/kg) followed, 24 hours later, by oral gavage with 10^5 colony forming units (CFU) of C. difficile. Antibiotic treatment is then administered orally, either simultaneously or 24 hours after C. difficile administration Animals are monitored for survival, weight variations, identification of C. difficile toxins in cecal content, and histologic damage to ceca as compared to animals treated with a prophylactic protocol using standard methods known in the art (see, for example, Anton P. M. et al., Abstract ID No. 102471, Publishing ID No. T1741, presented at the American Gastroenterological Association Meeting, May 17-22, 2003; Anton P. M. et al., Gastroenterology 124:A558, 2003).
Hamsters were infected with C. difficile, and at the time of infection, were also treated with vancomycin (50 mg/kg) or Rifalazil (2 mg/kg).

[1] = microgranulated formulation, systemic administration, relatively high doses (FIG. 1)

Compound | survival of hamsters infected with C. difficile (Rifalazil 2 mg/kg) | relapses of CDAD in in vivo animal experiments [1] | treatment of CDAD in in vivo animal experiments [1] | survival of hamsters infected with C. difficile (vancomycin 50 mg/kg)
CO[C@H]1/C=C/O[C@@]2(C)Oc3c(C)c(O)c4c(=O)c(c5oc6cc(N7CCN(CC(C)C)CC7)cc(O)c6nc-5c4c3C2=O)NC(=O)/C(C)=C\C=C\[C@H](C)[C@H](O)[C@@H](C)[C@@H](O)[C@@H](C)[C@H](OC(C)=O)[C@@H]1C [Rifalazil, 3′-hydroxy-5′-(4-isobutyl-1-piperazinyl) benzoxazinorifamycin] | All animals treated with Rifalazil survived | no relapses were observed | effectively treated | 
CN[C@H](CC(C)C)C(=O)N[C@H]1C(=O)N[C@@H](CC(N)=O)C(=O)N[C@H]2C(=O)N[C@H]3C(=O)N[C@H](C(=O)N[C@H](C(=O)O)c4cc(O)cc(O)c4-c4cc3ccc4O)[C@H](O)c3ccc(c(Cl)c3)Oc3cc2cc(c3O[C@@H]2O[C@H](CO)[C@@H](O)[C@H](O)[C@H]2O[C@H]2C[C@](C)(N)[C@H](O)[C@H](C)O2)Oc2ccc(cc2Cl)[C@H]1O [vancomycin, reference compound] |  |  |  | eventually succumbed to the infection

Source: patent US20110117154A1, “USE OF RIFALAZIL TO TREAT COLONIC DISORDERS” (ACTIVBIOTICS PHARMA, LLC, priority 2008, published 2011)
